Tests used:
[1] = system: SARS-CoV-2 isolate USA-WA1/2020; assay: Virus plaque formation assay; type: cell-based
[2] = system: SARS-CoV-2 isolate USA-WA1/2020; assay: RT-PCR assay of viral load (viral RNA copy number in cell supernatant); type: cell-based

Experimental for Vero-E6 cells: Cytotoxicity was measured using Promega™ CytoTox 96™ Nonradioactive Cytotoxicity Assay (cat #G1780, Promega, Madison, Wis., USA).
Cytotoxicity was measured using the Promega™ CytoTox 96™ Nonradioactive Cytotoxicity Assay kit (cat #G1780, Promega, Madison, Wis., USA) in 50 μL reactions and 96-well format (cat #161093, Thermo Fisher Scientific, Waltham, Mass., USA) according to the manufacturer's protocol, except we used 20 μL of 10× Lysis Solution per 100 μL of sample and incubated at 37° C. for 30 minutes to generate the maximum LDH release control. The assay was measured using a BioTeK Synergy™ HT plate reader (model #7091000, BioTek, Winooski, Vt., USA) at an optical density of 490 nm (OD490). Cytotoxicity was measured for ≤60 μM Cmpd. x for all three cell lines (LLC-MK2, Vero E6, and Calu-3). LLC-MK2 cells were assessed for cytotoxicity at 5 days, whereas Vero E6 and Calu-3 cells were assessed for cytotoxicity every 24 hours from 1-5 days.

For `COc1ccc2c3c([nH]c2c1)C(CCCC1=NCCc2c1[nH]c1cc(OC)ccc21)=NCC3` [GZ440-6, 1,3-bis(7-methoxy-4,9-dihydro-3H-pyrido[3,4-b]indol-1-yl)propane], the “inhibition of plaque formation” value ([1]; 2.0 μM, 5.0 μM and 10.0 μM, Vero-E6 cells, 120 h after infection) was “negligible inhibition”, the “inhibition of plaque formation” value ([1]; 20 μM and above, Student's T-Test vs. Camostat/E64d P<0.05) was “inhibition of plaque formation was significant” and the average cytotoxicity values (Vero-E6 cells) was “not elevated above controls”. The “viral numbers (RNA copy number)” value ([2]; 40 μM (P<0.05), FIG. 3C) was “clear reduction in viral numbers”, the “viral load (viral RNA levels)” value ([2]; higher concentrations (20 and 40 μM), 120 hours after infection) was “decreased viral load” and the “viral load (viral RNA levels / viral numbers)” value ([2]; lower concentrations (2, 5, 10 μM), 120 hours after infection, listed as compound of the invention) was “no consistent reduction of viral numbers”.
